Measured values from patent publication US10118918B2, “PRMT5 inhibitors and uses thereof” (Epizyme, Inc., priority 2012, dated 2018).

Key:
Z-138 cells = assay: Z-138 Proliferation Assay (Cell Titer Glo); assay type: cell-based; settings: Homo sapiens, 120 h, 5 days incubation
Text: [formula] Z-138 Proliferation Assay
Z-138 suspension cells were purchased from ATCC (American Type Culture Collection, Manassas, Va.). RPMI/Glutamax medium, penicillin-streptomycin, heat inactivated fetal bovine serum were purchased from Life Technologies, Grand Island, N.Y., USA. V-bottom polypropylene 384-well plates were purchased from Greiner Bio-One, Monroe, N.C., USA. Cell culture 384-well white opaque plates were purchased from Perkin Elmer, Waltham, Mass., USA. Cell-Titer Glo® was purchased from Promega Corporation, Madison, Wis., USA. SpectraMax M5 plate reader was purchased from Molecular Devices LLC, Sunnyvale, Calif., USA.
Z-138 suspension cells were maintained in growth medium (RPMI 1640 supplemented with 10% v/v heat inactivated fetal bovine serum and cultured at 37° C. under 5% CO2. Under assay conditions, cells were incubated in assay medium (RPMI 1640 supplemented with 10% v/v heat inactivated fetal bovine serum and 100 units/mL penicillin-streptomycin) at 37° C. under 5% CO2.
For the assessment of the effect of compounds on the proliferation of the Z-138 cell line, exponentially growing cells were plated in 384-well white opaque plates at a density of 10,000 cells/ml in a final volume of 50 μl of assay medium. A compound source plate was prepared by performing triplicate nine-point 3-fold serial dilutions in DMSO, beginning at 10 mM (final top concentration of compound in the assay was 20 μM and the DMSO was 0.2%). A 100 nL aliquot from the compound stock plate was added to its respective well in the cell plate. […] After addition of compounds, assay plates were incubated for 5 days at 37° C., 5% CO2, relative humidity >90%.
Cell viability was measured by quantitation of ATP present in the cell cultures, adding 35 μl of Cell Titer Glo® reagent to the cell plates. Luminescence was read in the SpectraMax M5 microplate reader. The concentration of compound inhibiting cell viability by 50% was determined using a 4-parametric fit of the normalized dose response curves.

[1] = system: symmetric di-methyl arginine in Z-138 cells; assay: Z-138 Methylation Assay (In Cell Western for symmetric di-methyl arginine and DNA content); assay type: cell-based; settings: Homo sapiens, 96 hours incubation, read-out: ICW EC50
Text: [formula] Where top and bottom are the normally allowed to float, but may be fixed at 100 or 0 respectively in a 3-parameter fit. The Hill Coefficient normally allowed to float but may also be fixed at 1 in a 3-parameter fit. Y is the % inhibition and X is the compound concentration. Z-138 Methylation Assay
Z-138 suspension cells were purchased from ATCC (American Type Culture Collection, Manassas, Va.). RPMI/Glutamax medium, penicillin-streptomycin, heat inactivated fetal bovine serum, and D-PBS were purchased from Life Technologies, Grand Island, N.Y., USA. Odyssey blocking buffer, 800CW goat anti-rabbit IgG (H+L) antibody, and Licor Odyssey infrared scanner were purchased from Licor Biosciences, Lincoln, Nebr., USA. Symmetric di-methyl arginine antibody was purchased from EMD Millipore, Billerica, Mass., USA. 16% Paraformaldehyde was purchased from Electron Microscopy Sciences, Hatfield, Pa., USA.
Z-138 suspension cells were maintained in growth medium (RPMI 1640 supplemented with 10% v/v heat inactivated fetal bovine serum and 100 units/mL penicillin-streptomycin) and cultured at 37° C. under 5% CO2.
Cell Treatment, in Cell Western (ICW) for Detection of Symmetric Di-Methyl Arginine and DNA Content.
Z-138 cells were seeded in assay medium at a concentration of 50,000 cells per mL to a 384-well cell culture plate with 50 μL per well. Compound (100 nL) from 384 well source plates was added directly to 384 well cell plate. Plates were incubated at 37° C., 5% CO2 for 96 hours. After four days of incubation, 40 μL of cells from incubated plates were added to poly-D-lysine coated 384 well culture plates (BD Biosciences 356697). Plates were incubated at room temperature for 30 minutes then incubated at 37° C., 5% CO2 for 5 hours. After the incubation, 40 μL per well of 8% paraformaldehyde in PBS (16% paraformaldahyde was diluted to 8% in PBS) was added to each plate and incubated for 30 minutes. Plates were transferred to a Biotek 405 plate washer and washed 5 times with 100 μL per well of wash buffer (IX PBS with 0.1% Triton X-100 (v/v)). Next 30 μL per well of Odyssey blocking buffer were added to each plate and incubated 1 hour at room temperature. Blocking buffer was removed and 20 μL per well of primary antibody was added (symmetric di-methyl arginine diluted 1:100 in Odyssey buffer with 0.1% Tween 20 (v/v)) and plates were incubated overnight (16 hours) at 4° C. Plates were washed 5 times with 100 μL per well of wash buffer. Next 20 μL per well of secondary antibody was added (1:200 800CW goat anti-rabbit IgG (H+L) antibody, 1:1000 DRAQ5 (Biostatus limited) in Odyssey buffer with 0.1% Tween 20 (v/v)) and incubated for 1 hour at room temperature. The plates were washed 5 times with 100 μL per well wash buffer then 1 time with 100 μL per well of water. Plates were allowed to dry at room temperature then imaged on the Licor Odyssey machine which measures integrated intensity at 700 nm and 800 nm wavelengths. Both 700 and 800 channels were scanned.
First, the ratio for each well was determined by:
Each plate included fourteen control wells of DMSO only treatment (minimum inhibition) as well as fourteen control wells for maximum inhibition treated with 3 μM of a reference compound (Background wells). The average of the ratio values for each control type was calculated and used to determine the percent inhibition for each test well in the plate. Reference compound was serially diluted three-fold in DMSO for a total of nine test concentrations, beginning at 3 μM. Percent inhibition was determined and IC50 curves were generated using triplicate wells per concentration of compound. […]

Row | EC50 [1] | Compound | EC50 (Z-138 cells)
1 | 1000 to 10000 nM | O=C(NC[C@H](O)CN1Cc2ccccc2C1)c1cncc(NC2CCNC2)c1 (some centres unmarked) [compound 32] | > 20000 nM
2 | 101 to 1000 nM | O=C(COc1cccc2cccnc12)NC[C@H](O)CN1Cc2ccccc2C1 [compound 4] | 1000 to 10000 nM
3 | 101 to 1000 nM | CN(C)S(=O)(=O)c1ccccc1OCC(=O)NC[C@@H](O)CN1Cc2ccccc2C1 [compound 21] | > 20000 nM
4 | 101 to 1000 nM | O=C(NC[C@H](O)CN1Cc2ccccc2C1)c1ccnc(NC2CCOCC2)c1 [compound 30] | 1000 to 10000 nM
